Source: ChEMBL document CHEMBL1201862, “PubChem BioAssay data set” (2004)
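The compound was tested at five concentrations on cells cultured in 96-well plates, with a 48-hour exposure period. The concentration for 50% growth inhibition is given as GI50.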 Calls of active or inactive are those of the source. Rule as the data show it: active = GI50 up to about 1.1 µM and inactive = higher.

Columns and labels:
Assay in all cases: NCI anticancer screen, dose series, 48 h
[1] = system: NCI-H522
[2] = system: SF-539
[3] = system: SNB-19
[4] = system: KM12
[5] = system: K562
[6] = system: NCI-H460
[7] = system: HCT-116
[8] = system: COLO 205
[9] = system: MDA-MB-435
[10] = system: HOP-92
[11] = system: OVCAR-4
[12] = system: PC-3
[13] = system: HOP-62
[14] = system: SK-MEL-2
[15] = system: LOX IMVI
[16] = system: NCI/ADR-RES
[17] = system: OVCAR-3
[18] = system: DU-145
[19] = system: NCI-H226
[20] = system: SR

Measured: GI50

CCN(CC)CC1CCCCN1CC(=O)N1c2ccccc2NC(=O)CC1C (stereo not drawn)
inactive: [1] > 100 µM | [2] > 100 µM | [3] > 100 µM | [4] > 100 µM | [5] > 100 µM | [6] > 100 µM | [7] > 100 µM | [8] > 100 µM | [9] > 100 µM | [10] > 100 µM | [11] > 100 µM | [12] > 100 µM | [13] > 100 µM | [14] > 100 µM | [15] > 100 µM | [16] > 100 µM | [17] > 100 µM | [18] > 100 µM | [19] > 100 µM

O=C(CC(C(=O)c1ccco1)c1ccco1)c1ccco1 (stereo not drawn)
inactive: [20] > 100 µM | [1] > 100 µM | [2] > 100 µM | [4] > 100 µM | [5] > 100 µM | [6] > 100 µM | [7] > 100 µM | [8] > 100 µM | [9] > 100 µM | [10] > 100 µM | [11] 23.8 µM | [13] > 100 µM | [15] > 100 µM | [16] > 100 µM | [17] > 100 µM | [18] > 100 µM | [19] > 100 µM

COc1ccccc1-c1nc(-c2ccccc2O)n[nH]1
inactive: [2] > 100 µM | [3] > 100 µM | [4] > 100 µM | [5] > 100 µM | [6] > 100 µM | [7] > 100 µM | [8] > 100 µM | [9] > 100 µM | [10] > 100 µM | [11] > 100 µM | [12] > 100 µM | [13] > 100 µM | [14] > 100 µM | [15] 71.1 µM | [16] > 100 µM | [17] > 100 µM | [18] > 100 µM | [19] > 100 µM

CC1CC(=O)Nc2ccc(/N=N/N(C)C)cc2N1C=O (stereo not drawn)
inactive: [1] > 100 µM | [3] > 100 µM | [4] > 100 µM | [5] > 100 µM | [6] > 100 µM | [7] > 100 µM | [8] > 100 µM | [9] > 100 µM | [11] > 100 µM | [12] > 100 µM | [13] > 100 µM | [14] > 100 µM | [16] > 100 µM | [17] > 100 µM | [18] > 100 µM | [19] > 100 µM

C/C(=N\N=C(\N)OB(F)F)c1ccccn1
inactive: [20] 76.6 µM | [1] > 100 µM | [2] > 100 µM | [3] > 100 µM | [4] > 100 µM | [5] 46.7 µM | [6] 40.8 µM | [7] 58.5 µM | [8] > 100 µM | [9] > 100 µM | [10] 12.7 µM | [11] 35 µM | [13] 37.5 µM | [14] > 100 µM | [15] 28.2 µM | [16] > 100 µM | [17] 92 µM | [18] > 100 µM | [19] 40.8 µM

COc1cc(OC)c(OC)cc1/C=C/c1ccccn1
inactive: [1] > 10 µM | [2] > 10 µM | [3] > 10 µM | [4] > 10 µM | [5] > 10 µM | [6] > 10 µM | [7] > 10 µM | [8] > 10 µM | [9] > 10 µM | [10] > 10 µM | [11] > 10 µM | [12] > 10 µM | [13] > 10 µM | [14] > 10 µM | [15] > 10 µM | [16] > 10 µM | [17] > 10 µM | [18] > 10 µM | [19] > 10 µM

Cc1ccc(-n2nncc2[Si](C)(C)C)s1
inactive: [1] > 100 µM | [2] > 100 µM | [3] > 100 µM | [5] > 100 µM | [6] > 100 µM | [7] > 100 µM | [8] > 100 µM | [9] > 100 µM | [10] > 100 µM | [11] > 100 µM | [12] > 100 µM | [14] > 100 µM | [15] > 100 µM | [16] > 100 µM | [17] > 100 µM | [18] > 100 µM | [19] > 100 µM

CCCCCCCCCCCCCCCC(=O)OCC1CCCN2CCCCC12 (stereo not drawn)
inactive: [2] > 100 µM | [3] > 100 µM | [4] > 100 µM | [5] > 100 µM | [6] > 100 µM | [7] > 100 µM | [8] > 100 µM | [9] > 100 µM | [10] > 100 µM | [11] > 100 µM | [12] > 100 µM | [13] > 100 µM | [14] > 100 µM | [15] > 100 µM | [16] > 100 µM | [17] > 100 µM | [18] > 100 µM | [19] > 100 µM
